Data taken from PubChem BioAssay (NCI).
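Cultured in 96-well plates, cells were exposed to test compound for 48 hours across five concentrations. TGI is the concentration that stops growth completely.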

Tests used:
Assay in all cases: DTP human tumour cell line panel, 48 h
MDA-N = tested on: MDA-N
HCT-116 colon = tested on: HCT-116 colon
OVCAR-4 ovarian = tested on: OVCAR-4 ovarian
UO-31 renal = tested on: UO-31 renal
HL-60(TB) leukemia = tested on: HL-60(TB) leukemia
HCC-2998 colon = tested on: HCC-2998 colon
786-0 renal = tested on: 786-0 renal
MDA-MB-435 = tested on: MDA-MB-435
SN12C renal = tested on: SN12C renal
LOX IMVI melanoma = tested on: LOX IMVI melanoma
SF-268 CNS = tested on: SF-268 CNS
SK-MEL-5 melanoma = tested on: SK-MEL-5 melanoma
A498 renal = tested on: A498 renal
BT-549 breast = tested on: BT-549 breast
RPMI-8226 leukemia = tested on: RPMI-8226 leukemia
MCF7 breast = tested on: MCF7 breast
SK-MEL-28 melanoma = tested on: SK-MEL-28 melanoma
A549 NSCLC = tested on: A549 NSCLC
UACC-62 melanoma = tested on: UACC-62 melanoma
SK-MEL-2 melanoma = tested on: SK-MEL-2 melanoma
SK-OV-3 ovarian = tested on: SK-OV-3 ovarian
RXF 393 renal = tested on: RXF 393 renal
K-562 leukemia = tested on: K-562 leukemia
OVCAR-5 ovarian = tested on: OVCAR-5 ovarian
HS 578T breast = tested on: HS 578T breast
NCI-H460 lung = tested on: NCI-H460 lung
M14 melanoma = tested on: M14 melanoma
SW-620 colon = tested on: SW-620 colon
UACC-257 melanoma = tested on: UACC-257 melanoma
HT29 colon = tested on: HT29 colon
SNB-19 CNS = tested on: SNB-19 CNS
NCI/ADR-RES ovarian = tested on: NCI/ADR-RES ovarian
HCT-15 colon = tested on: HCT-15 colon
ACHN renal = tested on: ACHN renal
NCI-H23 lung = tested on: NCI-H23 lung
MALME-3M melanoma = tested on: MALME-3M melanoma
SF-539 CNS = tested on: SF-539 CNS
COLO 205 colon = tested on: COLO 205 colon
OVCAR-3 ovarian = tested on: OVCAR-3 ovarian
U251 CNS = tested on: U251 CNS
DU-145 prostate = tested on: DU-145 prostate
KM12 colon = tested on: KM12 colon
TK-10 renal = tested on: TK-10 renal
SR leukemia = tested on: SR leukemia
NCI-H226 lung = tested on: NCI-H226 lung
T-47D breast = tested on: T-47D breast
SNB-75 CNS = tested on: SNB-75 CNS
HOP-62 NSCLC = tested on: HOP-62 NSCLC
MDA-MB-231 breast = tested on: MDA-MB-231 breast
HOP-92 NSCLC = tested on: HOP-92 NSCLC
IGROV1 ovarian = tested on: IGROV1 ovarian
PC-3 prostate = tested on: PC-3 prostate
MOLT-4 leukemia = tested on: MOLT-4 leukemia
CCRF-CEM leukemia = tested on: CCRF-CEM leukemia
NCI-H522 lung = tested on: NCI-H522 lung
EKVX NSCLC = tested on: EKVX NSCLC
CAKI-1 renal = tested on: CAKI-1 renal
OVCAR-8 ovarian = tested on: OVCAR-8 ovarian
SF-295 CNS = tested on: SF-295 CNS

Clc1ccc(-c2cn3c(nc4ccccc43)c(/C=C/c3ccco3)n2)cc1
TGI (MDA-N): > 100 µM
TGI (HCT-116 colon): > 100 µM
TGI (OVCAR-4 ovarian): > 100 µM
TGI (UO-31 renal): > 100 µM
TGI (HL-60(TB) leukemia): 41.7 µM
TGI (HCC-2998 colon): > 100 µM
TGI (786-0 renal): > 100 µM
TGI (MDA-MB-435): > 100 µM
TGI (SN12C renal): > 100 µM
TGI (LOX IMVI melanoma): > 100 µM
TGI (SF-268 CNS): > 100 µM
TGI (SK-MEL-5 melanoma): > 100 µM
TGI (A498 renal): 96.3 µM
TGI (BT-549 breast): > 100 µM
TGI (RPMI-8226 leukemia): 39.8 µM
TGI (MCF7 breast): > 100 µM
TGI (SK-MEL-28 melanoma): > 100 µM
TGI (A549 NSCLC): > 100 µM
TGI (UACC-62 melanoma): > 100 µM
TGI (SK-MEL-2 melanoma): 41.6 µM
TGI (SK-OV-3 ovarian): > 100 µM
TGI (RXF 393 renal): > 100 µM
TGI (K-562 leukemia): > 100 µM
TGI (OVCAR-5 ovarian): > 100 µM
TGI (HS 578T breast): 61.8 µM
TGI (NCI-H460 lung): > 100 µM
TGI (M14 melanoma): > 100 µM
TGI (SW-620 colon): > 100 µM
TGI (UACC-257 melanoma): > 100 µM
TGI (HT29 colon): > 100 µM
TGI (SNB-19 CNS): > 100 µM
TGI (NCI/ADR-RES ovarian): > 100 µM
TGI (HCT-15 colon): > 100 µM
TGI (ACHN renal): > 100 µM
TGI (NCI-H23 lung): > 100 µM
TGI (MALME-3M melanoma): > 100 µM
TGI (SF-539 CNS): > 100 µM
TGI (COLO 205 colon): > 100 µM
TGI (OVCAR-3 ovarian): > 100 µM
TGI (U251 CNS): > 100 µM
TGI (DU-145 prostate): > 100 µM
TGI (KM12 colon): > 100 µM
TGI (TK-10 renal): 82 µM
TGI (SR leukemia): 41.4 µM
TGI (NCI-H226 lung): > 100 µM
TGI (T-47D breast): > 100 µM
TGI (SNB-75 CNS): 83.5 µM
TGI (HOP-62 NSCLC): > 100 µM
TGI (MDA-MB-231 breast): > 100 µM
TGI (HOP-92 NSCLC): 50.4 µM
TGI (IGROV1 ovarian): > 100 µM

Cc1n[nH]c(=O)n1/N=C\c1ccccc1
TGI (MDA-N): > 100 µM
TGI (HCT-116 colon): > 100 µM
TGI (OVCAR-4 ovarian): > 100 µM
TGI (UO-31 renal): > 100 µM
TGI (HL-60(TB) leukemia): > 100 µM
TGI (HCC-2998 colon): > 100 µM
TGI (786-0 renal): > 100 µM
TGI (MDA-MB-435): > 100 µM
TGI (SN12C renal): > 100 µM
TGI (LOX IMVI melanoma): > 100 µM
TGI (SF-268 CNS): > 100 µM
TGI (SK-MEL-5 melanoma): > 100 µM
TGI (A498 renal): > 100 µM
TGI (BT-549 breast): > 100 µM
TGI (RPMI-8226 leukemia): > 100 µM
TGI (MCF7 breast): > 100 µM
TGI (SK-MEL-28 melanoma): > 100 µM
TGI (A549 NSCLC): > 100 µM
TGI (UACC-62 melanoma): > 100 µM
TGI (SK-MEL-2 melanoma): > 100 µM
TGI (PC-3 prostate): > 100 µM
TGI (RXF 393 renal): 50.9 µM
TGI (K-562 leukemia): > 100 µM
TGI (OVCAR-5 ovarian): > 100 µM
TGI (HS 578T breast): > 100 µM
TGI (NCI-H460 lung): > 100 µM
TGI (SW-620 colon): > 100 µM
TGI (UACC-257 melanoma): > 100 µM
TGI (MOLT-4 leukemia): > 100 µM
TGI (HT29 colon): > 100 µM
TGI (CCRF-CEM leukemia): > 100 µM
TGI (NCI-H522 lung): > 100 µM
TGI (EKVX NSCLC): > 100 µM
TGI (NCI/ADR-RES ovarian): > 100 µM
TGI (HCT-15 colon): > 100 µM
TGI (ACHN renal): > 100 µM
TGI (NCI-H23 lung): > 100 µM
TGI (MALME-3M melanoma): > 100 µM
TGI (SF-539 CNS): > 100 µM
TGI (CAKI-1 renal): > 100 µM
TGI (COLO 205 colon): > 100 µM
TGI (OVCAR-3 ovarian): > 100 µM
TGI (U251 CNS): > 100 µM
TGI (DU-145 prostate): > 100 µM
TGI (OVCAR-8 ovarian): > 100 µM
TGI (KM12 colon): > 100 µM
TGI (TK-10 renal): > 100 µM
TGI (SR leukemia): > 100 µM
TGI (NCI-H226 lung): > 100 µM
TGI (HOP-62 NSCLC): > 100 µM
TGI (SF-295 CNS): > 100 µM
TGI (MDA-MB-231 breast): > 100 µM
TGI (IGROV1 ovarian): > 100 µM
